Values of other authors, collected in US20220154183A1, “CHMP2A as a Regulator of Natural Killer Cell-Mediated Activity” (The Regents of the University of California, priority 2019, published 2022).

System: HNSCC
Settings: cetuximab as monotherapy

Substance	patients responding [%]
pembrolizumab	20
Nivolumab	20
